In patent US20250160328A1, “COMPOSITIONS AND METHODS FOR REDUCING PARASITIC INFESTATION OF HONEY BEE HIVES” (University of Georgia Research Foundation, Inc., priority 2022, published 2025):
Where “and” joins values, the source holds several entries; their conditions need not be identical. Identical values can stand only once.

How the values were obtained:
[1] = tested on: small hive beetle adults; experiment: SHB Adult Exposure Toxicity Assay (contact); format: in vivo, Aethina tumida
Experimental: Testing on chlorantraniliprole contact effectiveness was also conducted on small hive beetle adults. Each plate in which small hive beetles were placed contained an approximately 1 in×1 in square of absorbent shop towel located in the middle of the pot, soaked with solution via pipette. Tests included a methanol-negative (1:1 sugar to water/w) control group with 6 plates of 8 individuals, a methanol-positive (1:1 sugar to water/w solution with methanol then added in to be 1/6 of volume) control group with 7 plates of 8 individuals, a 5 μg treatment group (same as methanol-positive control with 5 μg a.i. added) with 7 plates of 8 individuals, and a 10 μg group (same as methanol-positive control with 10 μg a.i. added) with 7 plates of 8 individuals. Numbers of live beetles were tallied at the end of the test period.

[2] = tested on: adult small hive beetles; experiment: SHB Adult Feed Toxicity and Reproduction Assay; format: in vivo, Aethina tumida
Experimental: In-feed testing with adult small hive beetles was done with small hive beetle adults taken from colonies in the field and individuals reared in-lab. Adults from the field and in-lab were given three days to acclimate together in a large container with feed (2 parts pollen supplement; 1 part pollen; 1/2 part honey) in an incubator at 30 C. Simultaneously, 50 mg of Chlorantraniliprole was suspended in 50 mL (1.25 g/mL) glycerol, which was then mixed into 100 g feed, resulting in a concentration of 0.3 mg Chlorantraniliprole per 1 gram feed. A concentration of 100 μg of active ingredient per 1 gram feed was then achieved via dilution with feed and glycerol solution. Using serial dilution, feeds with varying concentrations of active ingredient were mixed, producing feeds with 100 μg, 10 μg, 1 μg, 0 μg (control) active ingredient per 1 g feed. Following the acclimation period, approximately 10 adult small hive beetles (some pots contained more than 10 individuals, but no more than 12) were randomly assigned to 32 pots, with 8 pots randomly assigned to each treatment (100 μg, 10 μg, 1 μg, 0 μg Chlorantraniliprole). Mortality and reproduction were then monitored at 4, 6, 18 and 34 days.

[3] = tested on: small hive beetle (SHB); experiment: Field Assay: SHB infestation of pollen supplement patties in hives; format: in vivo, Aethina tumida; settings: approximately 10 μg chlorantraniliprole per 1 g protein feed
Experimental: FIG. 2 is a bar graph of the experimental results from FIG. 1, showing the infestation rates of protein substitute mixed with concentrated solution of chlorantraniliprole, methanol, and glycerol according to trial instructions compared to untreated/control supplementary feed. Instructions achieved approximately 10 μg chlorantraniliprole per 1 g protein feed. Briefly, chlorantraniliprole was dissolved in methanol at a ratio of 1 mg chlorantraniliprole to 1 ml methanol via agitation/stirring. Chlorantraniliprole-methanol solution was cooled to −20° C. and then suspended/mixed into glycerol also cooled to −20° C. and stored between 4° C. and −20° C. to create a shelf-stable product. Product was then mixed into lethal attractant/supplementary feed at a rate of 50 ml formulated product per 1 kg feed or attractant via either mechanical or hand mixing at ambient temperature (200 ml of 80% glycerol/20% methanol was added to 4 kg of protein feed (i.e., 40 ml glycerol and 10 ml methanol per 1 kg protein feed). Treated attractant/feed mixture was then ready for deployment in the honey colony.
Pollen supplement was weighed out into two masses, each approximately 4 kg. To create the control pollen supplement patties, 200 ml of 80% glycerol, 20% methanol by volume solution was added to the pollen supplement mass. […]

[4] = tested on: honey bees; experiment: Adult Honeybee Atoxicity Assays (mortality cages)
Experimental: In all instances, isocaloric sugar feed solutions were used (all honey bees were exposed to feed of equivalent sugar concentration). Both sets of experiments also tested the safety of methanol as a solvent for carrying the chlorantraniliprole. Mortality cages used approximately 20-50 bees per cage replicated across numerous colonies. Each cage was treated with one experimental dose of feed. Each colony donates a cage of bees to each dose in a full factorial experiment in line with tests used for EPA evaluation. Mortality was recorded at 24 hours and 48 hours.
Treatments included chlorantraniliprole concentrations of: 0 (w/methanol), 0 (w/o methanol), 0 (positive dimethoate control), 5, 15, 65, 250 μg/mL.

[5] = tested on: adult carabid beetles; settings: Larson et al., Pest Manag. Sci. 2012; cited from earlier work
[6] = tested on: honey bees; settings: cited from earlier work; for intoxication symptoms to honey bees: under certain test conditions, Minnesota Department of Agriculture website
[7] = tested on: bumblebee colony; settings: in vivo; cited from earlier work
[8] = 10 μg/g chlorantraniliprole in feed
[9] = 100 μg/g chlorantraniliprole in feed

Compound | mortality of adult small hive beetles via contact exposure ([1]; 5 μg and 10 μg a.i. on soaked shop towel in sugar water/methanol) | survival of adult small hive beetles ([1]; 5 μg and 10 μg a.i., contact exposure, end of test period) | SHB larvae observed (reproduction) ([2]; 1 μg/g chlorantraniliprole in feed) | SHB larvae observed (reproduction) [2, 8] | mortality of adult small hive beetles [2, 8] | SHB larvae observed (reproduction) [2, 9] | time of exposure by which all adult small hive beetles were dead [2, 9] [days] | SHB infestation of patties in the five day field trial period ([3]; 5 days in hives) | SHB infestation of supplementary food after two weeks of incubation to hatch eggs ([3]; 5 days in hives then 14 days at 30 C) | sublethal effect observed in honeybees ([4]; 250 μg/mL, the very highest dose) | adult bee mortality at effective control concentrations ([4]; USDA-standard laboratory trials, FIG. 4) | honey bee mortality in relation to dose ([4]; set one 1.25-10 μg/mL, set two 5-250 μg/mL in sugar feed, 24 hours and 48 hours) | in-field toxicity to adult carabid beetles [5] | LD50 to Apis mellifera (EPA 2008) ([6]; EPA registration documentation as a lawn-treatment) [mg/bee] | oral toxicity (LD50) for bees, EPA Data ([6]; oral) | intoxication symptoms to honey bees [6] | fold less toxic than clothianidin to Apis mellifera ([6]; versus a comparable neonicotinoid, clothianidin) | effects on bumblebee colony growth or mortality [7] | toxicity of the solvent to honey bees ([4]; methanol in sugar feed (30% by volume in set one) versus no methanol)
CNC(=O)c1cc(Cl)cc(C)c1NC(=O)c1cc(Br)nn1-c1ncccc1Cl [chlorantraniliprole] | no evidence of elevated mortality | all adult small hive beetles survived the experiment | few larvae were observed but subsequently died while still in their first or second instars | No evidence of any larvael SHB | Elevated mortality | No evidence of any larvael SHB | ≤ 6 | remained free of SHB infestation | remained SHB-infestation free and 10/10 | Sublethal lethargy | no adult bee mortality | no significant increase in honey bee mortality | no evidence of apparent in-field toxicity | > 0.1 | exceeds 100 μg a.i. per bee | little or no intoxication symptoms | more than 2000 × | no detectable negative effects | –
Cc1cc(C(F)(C(F)(F)F)C(F)(F)F)ccc1NC(=O)c1cccc(I)c1C(=O)NC(C)(C)CS(C)(=O)=O [flubendiamide] | – | – | – | – | – | – | – | – | – | – | – | – | – | – | – | little or no intoxication symptoms | – | – | –
CO [methanol] | – | – | – | – | – | – | – | – | – | – | – | – | – | – | – | – | – | – | No evidence of any toxicity
